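Test compounds were applied to cells in 96-well plates for 48 hours at 5 doses. Abbreviation: GI50, concentration required for 50% inhibition of growth. TGI marks complete inhibition of growth.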
Experiments:
Assay in all cases: growth of human tumour cells (NCI), 48 h
[1] = test system: SF-539 CNS
[2] = test system: UACC-62 melanoma
[3] = test system: KM12 colon
[4] = test system: OVCAR-4 ovarian
[5] = test system: SNB-75 CNS
[6] = test system: SK-OV-3 ovarian
[7] = test system: SW-620 colon
[8] = test system: A549 NSCLC
[9] = test system: HCC-2998 colon
[10] = test system: COLO 205 colon

Row | SMILES | GI50 [1] [µM] | TGI [1] [µM] | GI50 [2] [µM] | TGI [2] [µM] | GI50 [3] [µM] | TGI [3] [µM] | GI50 [4] [µM] | TGI [4] [µM] | GI50 [5] [µM] | TGI [5] [µM] | GI50 [6] [µM] | TGI [6] [µM] | GI50 [7] [µM] | TGI [7] [µM] | GI50 [8] [µM] | TGI [8] [µM] | GI50 [9] [µM] | TGI [9] [µM] | GI50 [10] [µM] | TGI [10] [µM]
1 | CC(C)(C)C[C@H]1NC(C(=O)NCC[C@H](O)CO)[C@H](c2cccc(Cl)c2)[C@@]12C(=O)Nc1cc(Cl)c(F)cc12 (stereo not given in full) | 15.5 | 31.8 | 1.6 | 15.8 | 14.7 | 28.8 | 14.8 | 32.4 | 14.1 | 29.9 | 16.3 | 34.9 | 16.6 | 34.1 | 3.13 | 17.4 | 16.2 | 31.1 | 16.1 | 30.7
2 | N#Cc1cnc2cc(OC[C@H](O)CO)c(NC(=O)CC3CSSC3)cc2c1Nc1ccc(OCc2cccc(F)c2)c(Cl)c1 | 0.791 | 1.55 | 0.807 | 1.68 | 0.155 | 0.45 | 0.619 | 1.57 | 0.879 | 1.74 | 0.748 | 1.48 | 0.698 | 1.58 | 0.924 | 1.98 | 0.796 | 1.55 | 0.883 | 1.81
3 | CC(C)C(=O)Nc1nc2nc[nH]c2c(=O)[nH]1 |  | > 100 |  | > 100 |  | > 100 |  | > 100 |  | > 100 |  | > 100 |  | > 100 |  | > 100 |  | > 100 |  | > 100
4 | NC(=S)N/N=C(/CC(=O)c1ccccc1)C(=O)Nc1ccc(Cl)c(Cl)c1 |  | > 100 |  | > 100 |  | > 100 |  | > 100 |  | > 100 |  | > 100 |  | > 100 |  | > 100 |  | > 100 |  | > 100
5 | CC(C)(C)OC(=O)C#CC[C@H]1CCCC1/C=C/C(O)=C1/C(=O)NC(CCCNC(=O)OC(C)(C)C)C1=O (stereo not given in full) |  | 83.1 |  | 34.9 |  | > 100 |  | 94.1 |  | > 100 |  | > 100 |  | > 100 |  | > 100 |  | > 100 |  | 33.6
6 | C=C1C(=O)O[C@H]2[C@H]1[C@H](OC(=O)/C(C)=C\C)CC(=C)[C@@H]1[C@H](O)[C@H]3O[C@@]3(C)[C@@]12O |  | > 100 |  | > 100 |  | > 100 |  | > 100 |  | > 100 |  | > 100 |  | > 100 |  | > 100 |  | > 100 |  | > 100
7 | COC(=O)CCC1CCc2c(OC)ccc(O)c2C1=O (stereo not given) |  | > 100 |  | > 100 |  | > 100 |  | > 100 |  | > 100 |  | > 100 |  | > 100 |  | > 100 |  | > 100 |  | > 100
8 | COC(=O)[C@H](Cc1cn(C)cn1)NC(=O)[C@H](Cc1c[nH]c2ccccc12)NC(=O)Nc1cc(C(F)(F)F)cc(C(F)(F)F)c1 | > 10 | > 10 | > 10 | > 10 | > 10 | > 10 | > 10 | > 10 | > 10 | > 10 | > 10 | > 10 | > 10 | > 10 | > 10 | > 10 | > 10 | > 10 | > 10 | > 10
9 | CCCc1[nH]nc(CCC(=O)N(Cc2ccccc2)Cc2ccccc2)c1CC |  | > 100 |  | > 100 |  | > 100 |  | > 100 |  | > 100 |  | > 100 |  | > 100 |  | > 100 |  | > 100 |  | > 100
10 | c1cc(-c2cn3ccsc3n2)ccn1 |  | > 100 |  | > 100 |  | > 100 |  | > 100 |  | > 100 |  | > 100 |  | > 62.3 |  | > 100 |  | > 100 |  | > 100
11 | O=C(c1ccccc1)C1N=NCC1c1ccc([N+](=O)[O-])cc1 (stereo not given) |  | > 100 |  | > 100 |  | > 100 |  | > 100 |  | 69.2 |  | > 100 |  | > 100 |  | > 100 |  | > 100 |  | > 100
12 | Cc1ccc(C(=O)O/N=C2/CCC/C2=C\c2ccccc2)cc1 |  | > 100 |  | > 100 |  | > 100 |  | > 100 |  | > 100 |  | > 100 |  | > 100 |  | > 100 |  | > 100 |  | > 100
13 | CCCN=Cc1cc(Cc2ccc(O)c(C=NCCC)c2)ccc1O |  | 9 |  | 22.7 |  | 22 |  | 86.1 |  | 9.67 |  | 82.4 |  | 15.9 |  | 32.3 |  | 27.8 |  | 34.2
